Results taken from patent US20140228274A1, “Liquid Detergent Composition” (priority 2011, published 2014).

Tests used:
[1] = biological target: T1, Savinase 16L (subtilisin) (Lederbergia lenta, UniProt P29600); assay: Storage stability in liquid detergent: residual protease activity (hydrolysis of N,N-dimethylcasein at 40° C., pH 8.3); type: biochemical; settings: for Residual protease activity, 4 weeks at 35° C. (% of initial activity): inhibitor dosage 'yes'
T1 construct: purchased Novozymes Savinase 16L
T1 sequence (P29600 1-269): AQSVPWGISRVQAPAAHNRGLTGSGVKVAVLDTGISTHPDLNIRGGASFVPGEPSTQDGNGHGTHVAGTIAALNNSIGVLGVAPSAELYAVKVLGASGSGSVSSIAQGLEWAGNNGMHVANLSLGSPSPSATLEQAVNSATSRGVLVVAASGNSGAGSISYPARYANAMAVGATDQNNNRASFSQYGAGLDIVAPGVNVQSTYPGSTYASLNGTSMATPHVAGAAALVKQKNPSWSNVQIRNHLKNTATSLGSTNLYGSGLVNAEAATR
Method: (§1) General experimental details: Detergents containing Savinase 16L and either X—B^1—B^0—H or X—B^1—NH—CHR—CHOH—SO3Na; or Savinase 16L; are placed in closed glasses at −18° C.; 35° C. and 40° C. Residual activities of protease and lipase are measured after different times using standard analytical methods (protease by hydrolysis of N,N-dimethylcasein at 40° C., pH 8.3 and lipase by hydrolysis of pNp-valerate at 40° C., pH 7.7). The inhibitor and protease may also be added individually to the detergent.
(§2) As an example of liquid detergents with a stabilized subtilisin formulation, the compositions described in Table 1 were made.
(§3) As another example of detergents with a stabilized subtilisin formulation, the compositions described in Table 3 were made.

Lipex 100L (lipase) = assay: Storage stability in liquid detergent: residual lipase activity (hydrolysis of pNp-valerate at 40° C., pH 7.7); type: biochemical
Method: as §1, §2, §3

[2] = Detergent B, 2% Na formate alone, no inhibitor
[3] = Detergent A, no Na formate, inhibitor 21 ppm (peptide aldehydes) or 26 ppm (hydrosulfite adduct) in detergent
[4] = Detergent B, 2% Na formate, inhibitor 21 ppm (peptide aldehydes) or 26 ppm (hydrosulfite adduct) in detergent

`O=C[O-].[Na+]` [Na formate, sodium formate] was tested, and the “Residual protease activity, 2 weeks at 40° C. (% of initial activity)” value [1, 2] was 1% and the “Residual lipase activity, 2 weeks at 35° C. (% of initial activity)” value (Lipex 100L (lipase); [2]) was 3%.

With Cbz-GAY-H the “Residual protease activity, 2 weeks at 40° C. (% of initial activity)” value [1, 3] was 5%, the “Residual protease activity, 2 weeks at 40° C. (% of initial activity)” value [1, 4] was 71% and the “Residual protease activity, 4 weeks at 35° C. (% of initial activity)” value ([1]; Detergent E (12% LAS, pH 8.4), no Na formate) was 43%. For the same compound, the “Residual protease activity, 4 weeks at 35° C. (% of initial activity)” value ([1]; Detergent F (12% LAS, pH 8.4), 2% Na formate) was 88%, the “Residual lipase activity, 2 weeks at 35° C. (% of initial activity)” value (Lipex 100L (lipase); [3]) was 16% and the “Residual lipase activity, 2 weeks at 35° C. (% of initial activity)” value (Lipex 100L (lipase); [4]) was 32%. For the same compound, the “Residual lipase activity, 2 weeks at 35° C. (% of initial activity)” value (Lipex 100L (lipase); Detergent E (12% LAS, pH 8.4), no Na formate, inhibitor dosage 'yes') was 14% and the “Residual lipase activity, 2 weeks at 35° C. (% of initial activity)” value (Lipex 100L (lipase); Detergent F (12% LAS, pH 8.4), 2% Na formate, inhibitor dosage 'yes') was 27%.

For Cbz-VAL-H, the “Residual protease activity, 2 weeks at 40° C. (% of initial activity)” value [1, 3] was 2%, the “Residual protease activity, 2 weeks at 40° C. (% of initial activity)” value [1, 4] was 49% and the “Residual lipase activity, 2 weeks at 35° C. (% of initial activity)” value (Lipex 100L (lipase); [3]) was 13%. The “Residual lipase activity, 2 weeks at 35° C. (% of initial activity)” value (Lipex 100L (lipase); [4]) was 30%.
